Results reported in patent US11173156B2, “Solid forms of a kynurenine-3-monooxygenase inhibitor” (CHDI Foundation, Inc., priority 2019, dated 2021).
Where two headings read alike, the source gives them in different places.

Columns and labels:
Format in all cases: physicochemical
[1] = Approximate aqueous solubility of salts/co-crystals (visual, solvent addition method); details: water; for solubility: estimated visually, solvent addition method
Protocol: A weighed sample was treated with aliquots of the test solvent at room temperature. The mixture was sonicated between additions to facilitate dissolution. Complete dissolution of the test material was determined by visual inspection. Solubility was estimated based on the total solvent used to provide complete dissolution. Some samples were then heated and observed visually for complete dissolution. The actual solubility may be greater than the value calculated because of the use of solvent aliquots that were too large or due to a slow rate of dissolution. […] If complete dissolution was achieved as a result of only one aliquot addition, the solubility is expressed as “greater than.”

[2] = Deliquescence of salts/co-crystals during exposure to 75% RH; details: ambient temperature, 3 day exposure, visual
Protocol: The salts identified from the salt/co-crystal screen of Compound I (see section 4 above) were assessed visually for deliquescence during exposure to 75% RH at ambient temperature (Table 5). […] The materials from these experiments were recovered and re-analyzed by XRPD to determine if changes in solid form occurred.

[3] = Dynamic vapor sorption/desorption (DVS); details: for material recovered from the DVS analysis compared with starting material by XRPD: after DVS; for DVS weight gain: from about 5 to about 95% RH; for DVS weight loss: from about 95% to about 5% RH
Protocol: Moisture sorption/desorption data were collected on a VTI SGA-100 Vapor Sorption Analyzer. NaCl and PVP were used as calibration standards. Samples were not dried prior to analysis. Sorption and desorption data were collected over a range from 5% to 95% RH at 10% RH increments under a nitrogen purge. The equilibrium criterion used for analysis was less than 0.0100% weight change in 5 minutes with a maximum equilibration time of 3 hours. Data were not corrected for the initial moisture content of the samples.

| Compound | Observation (deliquescence) [2] | hygroscopicity by DVS analysis (in words) [3] | DVS weight loss upon equilibration at about 5% RH [3] | material recovered from the DVS analysis compared with starting material by XRPD [3] | DVS weight gain [3] | DVS weight loss [3] | aqueous solubility (in words) [1] | solubility [1] | other results |
| --- | --- | --- | --- | --- | --- | --- | --- | --- | --- |
| O=C(O)c1cc(-c2ccc(OC3CC3)c(Cl)c2)ncn1 (racemic) [Compound I arginine Material A, 6-(3-chloro-4-cyclopropoxyphenyl)pyrimidine-4-carboxylic acid] |  |  |  |  |  |  |  |  | aqueous solubility (in words) ([1]; listed as Compound I Arginine Material A): suitable aqueous solubility |
| O=C(O)c1cc(-c2ccc(OC3CC3)c(Cl)c2)ncn1 (racemic) [Compound I lysine Material A, 6-(3-chloro-4-cyclopropoxyphenyl)pyrimidine-4-carboxylic acid] | no deliquescence |  |  |  |  |  |  |  | solubility ([1]; thermodynamic from solid, read-out: Solubility): < 4 mg/mL; aqueous solubility (in words) ([1]; listed as Compound I lysine material A): poor low aqueous solubility |
| O=C(O)c1cc(-c2ccc(OC3CC3)c(Cl)c2)ncn1 [Compound I diethanolamine Form A, 6-(3-chloro-4-cyclopropoxyphenyl)pyrimidine-4-carboxylic acid] | no deliquescence | not hygroscopic | about 0.2% | substantially the same as the starting material | ~0.48% | ~0.47% | desirable aqueous solubility | above 260 mg/mL |  |
| O=C(O)c1cc(-c2ccc(OC3CC3)c(Cl)c2)ncn1 [Compound I diethylamine Material A, 6-(3-chloro-4-cyclopropoxyphenyl)pyrimidine-4-carboxylic acid] | no deliquescence | hygroscopic | about 0.08% | substantially the same as the starting material | ~2.12% | ~1.92% | desirable aqueous solubility | ~30 mg/mL | gain observed by DVS analysis ([3]; sorption cycle): ~2 wt %; solubility ([1]; listed as Diethylamine A): >30 mg/mL |
| O=C(O)c1cc(-c2ccc(OC3CC3)c(Cl)c2)ncn1 [Compound I ethanolamine Material A, 6-(3-chloro-4-cyclopropoxyphenyl)pyrimidine-4-carboxylic acid] | no deliquescence |  |  |  |  |  | poor low aqueous solubility |  | solubility ([1]; listed as Ethanolamine A): <4 mg/mL |
| O=C(O)c1cc(-c2ccc(OC3CC3)c(Cl)c2)ncn1 [Compound I meglumine Material A, 6-(3-chloro-4-cyclopropoxyphenyl)pyrimidine-4-carboxylic acid] |  |  |  |  |  |  | suitable aqueous solubility |  |  |
| O=C(O)c1cc(-c2ccc(OC3CC3)c(Cl)c2)ncn1 [Compound I tromethamine Form A, 6-(3-chloro-4-cyclopropoxyphenyl)pyrimidine-4-carboxylic acid] | no deliquescence | not hygroscopic | about 0.01% | substantially the same as the starting material | ~0.25% | ~0.26% | desirable aqueous solubility | ~134 mg/mL | solubility ([1]; listed as Tromethamine A): >134 mg/mL |
